Results: patent US9181235B2, “Substituted pyridines for modulating the WNT signaling pathway” (NOVARTIS AG, priority 2010, dated 2015)
pIC50: −log10 of the molar value.

Key:
Wnt signaling = test: Wnt-Luc reporter assay for pathway inhibition of Wnt signaling; type: cell-based, mouse (TM3 Wnt-Luc) or human (293 Wnt-Luc); not stated which; conditions: Wnt-Luc reporter cells co-cultured with L-cell Wnt3a cells, 24 hours
Method in brief: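 Stable STF (Wnt-responsive luciferase) reporter lines, mouse TM3 or human HEK293, co-cultured with Wnt3a-producing L-cells in DMEM with 2% FBS and treated with compound for 24 h. Firefly luciferase read by Bright-Glo; IC50 taken as concentration giving 50% reduction in luminescence.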

[1] = Comparative stability in simulated gastric fluid (SGF), degradation by LCMS; type: physicochemical; conditions: 50° C. SGF, LCMS UV peak areas at 254 nm
Experimental: The stability of exemplified compounds of the invention were compared with N-(hetero)aryl, 2-(heteroy)aryl-substituted acetamides. Test compounds were dissolved or suspended in a specified media (e.g. simulated gastric fluid (SGF)). The resulting solution or suspension was kept at the testing temperature (e.g. 50° C.) for a given time (e.g. 4 hours), and the extent of degradation was quantified by LCMS using the respective UV absorption peak areas at 254 nm.

[2] = luciferase signal reduced by 50%

Structure (SMILES) | pIC50 (Wnt signaling; [2]) | pIC50 (Wnt signaling; Table 2) | other results
Cc1cn(-c2ccc(CNC(=O)c3ccc(-c4ccccc4)cc3)cc2)cn1 [compound 92, N-(4-(4-methyl-1H-imidazol-1-yl)benzyl)biphenyl-4-carboxamide] | 9.30 |  | 
O=C(NCC1CCN(C(=O)c2ccnc(F)c2)CC1)c1ccc(-c2cccc(F)c2)nc1 [compound 93, N-((1-(2-Fluoroisonicotinoyl)piperidin-4-yl)methyl)-6-(3-fluorophenyl)nicotinamide] | 7.04 |  | 
Cc1cc(C(=O)NCc2cnc(-c3ccnc(C(F)(F)F)c3)c(C)c2)ncc1-c1ncccc1C [compound 96] |  | < 5.70 | 
Cc1cc(C(=O)NCc2cnc(-c3ccnc(C(F)(F)F)c3)c(C)c2)ncc1-c1cccnc1C [compound 98] |  | < 5.92 | 
Cc1cc(C(=O)NCc2cnc(-c3ccnc(C(F)(F)F)c3)c(C)c2)ncc1-c1cccc(F)c1C [compound 99] |  | 5.96 | 
CC(=O)N1CCN(c2ccc(C(=O)NCc3ccc(-c4ccnnc4)cc3)cc2)CC1 [compound 100] |  | < 4.70 | 
Cc1cc(-c2ncc(CNC(=O)c3ccc(-c4cnccn4)cn3)cc2F)ccn1 [drawing 199] |  |  | % degradn. @ 4 hr [1]: ~0%; % degradn. @ 8 hr [1]: ~0. %; % degradn. @ 24 hr [1]: ~0%
Cc1cc(CNC(=O)c2ccc(-c3cnccn3)cn2)cnc1-c1ccnc(C(F)(F)F)c1 [drawing 200] |  |  | % degradn. @ 24 hr [1]: ~0%
O=C(Cc1ccc(-c2ccnnc2)c(C(F)(F)F)c1)Nc1ccc(-c2cccnn2)cn1 [reference compound] |  |  | % degradn. @ 4 hr [1]: 11.5%; % degradn. @ 8 hr [1]: 16.6%; % degradn. @ 24 hr [1]: 26.7%
Cc1cc(CC(=O)Nc2ccc(-c3cccc(F)c3)cn2)cnc1-c1ccnnc1 [reference compound] |  |  | % degradn. @ 24 hr [1]: 25.0%

The next lines start with results.

pIC50 (Wnt signaling; [2]) | pIC50 (Wnt signaling; Table 2) | Structure (SMILES) | other results
7.90 |  | Cc1cc(-c2ccc(CNC(=O)c3ccn(-c4cccc(F)c4)c(=O)c3)cn2)ccn1 [compound 89, 1-(3-Fluorophenyl)-N-((2′-methyl-[2,4′-bipyridin]-5-yl)methyl)-2-oxo-1,2-dihydropyridine-4-carboxamide] | 
8.18 |  | Cc1cc(CNC(=O)c2ccn(-c3cccc(F)c3)c(=O)c2)cnc1-c1ccnc(C(F)(F)F)c1 [compound 90, 1-(3-fluorophenyl)-N-({5-methyl-6-[2-(trifluoromethyl)pyridin-4-yl]pyridin-3-yl}methyl)-2-oxo-1,2-dihydropyridine-4-carboxamide] | 
8.42 |  | Cc1cc(-n2ccc(CNC(=O)c3ccc(-c4cccc(F)c4)cn3)cc2=O)ccn1 [compound 91, 5-(3-fluorophenyl)-N-{[1-(2-methylpyridin-4-yl)-2-oxo-1,2-dihydropyridin-4-yl]methyl}pyridine-2-carboxamide] | 
6.54 |  | O=C(NCC1CN(C(=O)c2ccnc(F)c2)C1)c1ccc(-c2cccc(F)c2)nc1 [compound 94, 6-(3-fluorophenyl)-N-({1-[(2-fluoropyridin-4-yl)carbonyl]azetidin-3-yl}methyl)pyridine-3-carboxamide] | 
6.38 |  | Cc1cc(-c2ccc(CNC(=O)c3ccc(Oc4ccccc4)nc3)cn2)ccn1 [compound 95, N-((2′-methyl-[2,4′-bipyridin]-5-yl)methyl)-6-phenoxynicotinamide] | 
 | < 5.74 | Cc1cc(-c2ncc(CNC(=O)c3cc(C)c(-c4cccc(F)c4)cn3)cc2C)ccn1 [compound 97] | 
